Results taken from publication PMC8844856, “Structural basis of cyclic oligoadenylate binding to the transcription factor Csa3 outlines cross talk between type III and type I CRISPR systems” (The Journal of Biological Chemistry, 2022).
Entries after “also recorded” stand apart in the source; their conditions may differ.

Columns and labels:
His6-Csa3Sso (WT) [1] = molecular target: T1, His6-Csa3Sso (WT) (Saccharolobus solfataricus, UniProt Q97Y88); assay: MST binding of PCas4a promoter DNA to Csa3Sso with or without cOAs; conditions: 50-fold excess of cOA (25 μM)
T1 construct: made in house; host or cells: E. coli BL21(DE3)-pLysS
T1 sequence (Q97Y88 1-237): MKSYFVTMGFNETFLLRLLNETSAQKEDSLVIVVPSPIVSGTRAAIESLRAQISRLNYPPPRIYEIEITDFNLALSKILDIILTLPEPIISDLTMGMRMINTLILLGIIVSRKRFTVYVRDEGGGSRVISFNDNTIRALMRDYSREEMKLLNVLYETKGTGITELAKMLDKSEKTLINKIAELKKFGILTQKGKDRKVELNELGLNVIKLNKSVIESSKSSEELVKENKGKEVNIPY
Method: The MST experiment and data analysis for ligand-induced changes in Csa3Sso binding affinity with PCas4a was performed as mentioned above except for the following: 1 μM of His6-Csa3Sso (WT) was fluorescently labeled in 2× binding buffer with 40 nM RED-Tris NTA His-Tag labeling dye in the absence or presence of cA4 or cA6. The labeling mixtures were incubated in the dark at room temperature for 30 min. A 50 μM stock of PCas4a was serially diluted in 1:1 ratios with nuclease-free water. The labeled proteins ± ligands were then mixed with diluted PCas4a in a 1:1 ratio and incubated in the dark at room temperature for 30 min. The supernatants obtained after removal of precipitated material were then loaded into Monolith NT.115 Series Premium capillaries in triplicate, and the thermophoresis was detected with 100% excitation power and 60% IR-laser power for an on-time of 20 s at 25 °C.
(§1) The binding affinities of oligonucleotides and PCas4a to Csa3Sso (WT and mutants) were analyzed according to the law of mass action in a standard fitting mode of MO.Affinity analysis software (version 2.3).

His6-Csa3Sso (WT) [2] = molecular target: T1, His6-Csa3Sso (WT); assay: Microscale thermophoresis (MST) binding of cOA ligands to wildtype Csa3Sso; conditions: for specific binding to His6-Csa3Sso: MST
Method: (§2) The ligand-binding specificity of Csa3Sso (WT) and the role of Csa3Sso residues in ligand binding were determined by microscale Thermophoresis (MST). Wildtype or mutant His6-Csa3Sso (200 nM) was fluorescently labeled in 2× binding buffer (10 mM Na/K phosphate, pH 5.8, 10 mM MgCl2, 25 mM NaCl, and 0.05% Tween 20) using 100 nM RED-Tris NTA His-Tag labeling dye (Nanotemper Technologies, Inc) and incubated in the dark at room temperature for 30 min. Two millimolar stocks of synthetic ligands including cA3, cA4, and cA6 (Biolog Life Science Institute) or linear ribonucleotide 5′-rCrArArArA-3′ (Bio-Synthesis Inc) were serially diluted in a 1:1 ratio with nuclease-free water. The labeled proteins were then mixed with ligands in a 1:1 ratio. Only cA4 was used in the MST experiments with the Csa3Sso mutants (2 mM stocks of cA4 were used for F10A, F14A, G96A, and R98A mutants, and 20 μM stocks were used for E122A and E122Q mutants). The mixtures of proteins and ligands were incubated in the dark at room temperature for 30 min. The precipitated material was removed by centrifugation at 6000 rpm for 5 min. The supernatants were then loaded into Monolith NT.115 Series Premium capillaries in triplicate, and the thermophoresis was detected with 40% excitation power and 40% IR-laser power for an on-time of 20 s at 25 °C.
as §1

Csa3Sso = molecular target: T2, Csa3Sso (Saccharolobus solfataricus, UniProt Q97Y88); assay: Ring nuclease activity assay (C18 HPLC), wildtype Csa3Sso; format: biochemical; conditions: 3 h
T2 construct: made in house; host or cells: E. coli BL21(DE3)-pLysS
T2 sequence (Q97Y88 1-237): T1 sequence (Q97Y88 1-237)
Method: (§3) […]. The reaction mixtures were deproteinized by ultrafiltration with an Amicon Ultra 3 kDa cutoff centrifugal filter (Millipore). […]. For both conditions, the products and controls were collected and analyzed with High Performance Liquid Chromatography system (UltiMate 3000, Thermo Scientific) equipped with the C18 column (4.6 × 100 mm, […], Thermo Scientific) and C18 column, (15 cm × 4.6 mm, […], Supelco), for the first and second conditions, respectively.

[3] = molecular target: Treponema succinifaciens Card1; design: method as in PMID 33461211; conditions: cited from earlier work
Csa3Sso–PCas4a complex = Csa3Sso–PCas4a complex (Saccharolobus solfataricus, UniProt Q97Y88)
Method: Top and bottom DNA oligonucleotide strands used for EMSA were purchased from Sigma-Aldrich (Table S2). The oligonucleotide strands were annealed by mixing them in 1:1 molar ratio followed by heating at 98 °C for the unlabeled, or 70 °C for the Cy5-labeled, DNA fragments for 15 min. Slow cooling to room temperature was used to anneal the fragments. Unlabeled probe-containing samples used for Fig. S8C were electrophoresed using a 2% (w/v) agarose Tris-Borate-EDTA (TBE) gel at 100 V for 30 min at room temperature. Probes were stained with ethidium bromide and visualized using Gel Doc XR+ Molecular Imager (Bio-Rad). […] The Cy5-labeled probes were electrophoresed in a 5% acrylamide TBE gel at 100 V for 1 h at 4 °C. DNA bands were visualized using FluorChem R gel imager (Protein Simple, Inc).

Csa3Sso F10A mutant = molecular target: T3, Csa3Sso F10A mutant (Saccharolobus solfataricus, UniProt Q97Y88, F10A); assay: MST binding of cA4 to Csa3Sso F10A mutant; conditions: Fig. 4E
T3 construct: made in house; host or cells: E. coli BL21(DE3)-pLysS (pET21b)
T3 sequence (Q97Y88 whole entry F10A): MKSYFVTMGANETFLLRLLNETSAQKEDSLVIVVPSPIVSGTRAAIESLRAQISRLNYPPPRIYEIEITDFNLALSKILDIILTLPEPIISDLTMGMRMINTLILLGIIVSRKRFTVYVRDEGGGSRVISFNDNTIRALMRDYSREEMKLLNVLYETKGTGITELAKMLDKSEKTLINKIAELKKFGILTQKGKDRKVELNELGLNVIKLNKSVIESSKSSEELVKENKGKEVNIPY
Method: as §2, with “The mixtures of proteins and ligands were incubated in the dark at room temperature for 30 min. The precipitated material was removed by centrifugation at 6000 rpm for 5 min.” left out
as §1

[4] = molecular target: T4, Csa3Sso-R98A mutant with PCas4a DNA (Saccharolobus solfataricus, UniProt Q97Y88, R98A); assay: Visual precipitation of Csa3Sso-R98A with PCas4a DNA in tubes; conditions: 50 μM Csa3Sso R98A, 10 μM PCas4a, 500 μM cA4, 30 min, 20 °C
T4 construct: made in house; host or cells: E. coli BL21(DE3)-pLysS (pBB75)
T4 sequence (Q97Y88 whole entry R98A): as the sequence (Q97Y88 whole entry F10A) above, with A10F, R98A counted along it
Source text: (§4) […]. The DNA fragment docked onto protomer A in the cA4-bound Csa3Sso dimer sterically clashed with a region in the CARF domain from protomer B in this dimer (encircled by a red dotted circle). […] To obtain these models, wHTH domains of B. subtilis OhrR (PDB code: 1Z9C ([71]), RMSD: 1.7 Å) were individually superimposed onto wHTH domains of the Csa3Sso dimer and OhrR was omitted from the view for clarity. A single and straight model of B-form DNA with two copies of the palindromes could not be modeled with the apo Csa3Sso dimer owing to a slight misorientation (not shown) between Csa3Sso wHTH domains (possibly requiring a bend in the DNA). B, precipitation of Csa3Sso in the presence of PCas4a DNA and its solubilization by cA4 binding to the Csa3Sso CARF domain. […]. Cy5-labeled PCas4a, 50 nM, was added to different Csa3Sso concentrations ranging from 500 nM to 25 μM in the presence or absence of cA4 added in a 50:1 ratio of cA4:Csa3Sso. […].

[5] = molecular target: T5, Csa3Sso–PCas4a complex precipitates (Saccharolobus solfataricus, UniProt Q97Y88); assay: Visual precipitation of Csa3Sso–PCas4a complexes in tubes, wildtype; conditions: 50 μM Csa3Sso WT, 10 μM PCas4a, 500 μM cA4, 30 min, 20 °C
T5 construct: made in house; host or cells: E. coli BL21(DE3)-pLysS
T5 sequence (Q97Y88 1-237): T1 sequence (Q97Y88 1-237)
Source text: as §4

Csa3Sso-E122Q = molecular target: T6, Csa3Sso-E122Q (Saccharolobus solfataricus, UniProt Q97Y88, E122Q); assay: Ring nuclease activity assay (C18 HPLC), Csa3Sso-E122Q; format: biochemical; conditions: 5 μM E122Q mutant, 500 μM cA4, 60 °C, 3 h, Fig. S5C
T6 construct: made in house; host or cells: E. coli BL21(DE3)-pLysS (pET21b)
T6 sequence (Q97Y88 whole entry E122Q): as the sequence (Q97Y88 whole entry F10A) above, with A10F, E122Q counted along it
Method: as §3

Csa3Sso F14A mutant = molecular target: T7, Csa3Sso F14A mutant (Saccharolobus solfataricus, UniProt Q97Y88, F14A); assay: MST binding of cA4 to Csa3Sso F14A mutant; conditions: Fig. 4E
T7 construct: made in house; host or cells: E. coli BL21(DE3)-pLysS (pET21b)
T7 sequence (Q97Y88 whole entry F14A): as the sequence (Q97Y88 whole entry F10A) above, with A10F, F14A counted along it
Method: as §2, with “The mixtures of proteins and ligands were incubated in the dark at room temperature for 30 min. The precipitated material was removed by centrifugation at 6000 rpm for 5 min.” left out
as §1

Csa3Sso R98A mutant = molecular target: T8, Csa3Sso R98A mutant (Saccharolobus solfataricus, UniProt Q97Y88, R98A); assay: MST binding of cA4 to Csa3Sso R98A mutant; conditions: Fig. 4E
T8 construct: made in house; host or cells: E. coli BL21(DE3)-pLysS (pBB75)
T8 sequence (Q97Y88 whole entry R98A): as the sequence (Q97Y88 whole entry F10A) above, with A10F, R98A counted along it
Method: as §2, with “The mixtures of proteins and ligands were incubated in the dark at room temperature for 30 min. The precipitated material was removed by centrifugation at 6000 rpm for 5 min.” left out
as §1

Csa3Sso-E122A = molecular target: T9, Csa3Sso-E122A (Saccharolobus solfataricus, UniProt Q97Y88, E122A); assay: Ring nuclease activity assay (C18 HPLC), Csa3Sso-E122A; format: biochemical; conditions: 5 μM E122A mutant, 500 μM cA4, 60 °C, 3 h, Fig. S5C
T9 construct: made in house; host or cells: E. coli BL21(DE3)-pLysS (pET21b)
T9 sequence (Q97Y88 whole entry E122A): as the sequence (Q97Y88 whole entry F10A) above, with A10F, E122A counted along it
Method: as §3

Csa3Sso G96A mutant = molecular target: T10, Csa3Sso G96A mutant (Saccharolobus solfataricus, UniProt Q97Y88, G96A); assay: MST binding of cA4 to Csa3Sso G96A mutant; conditions: Fig. 4E
T10 construct: made in house; host or cells: E. coli BL21(DE3)-pLysS (pET21b)
T10 sequence (Q97Y88 whole entry G96A): as the sequence (Q97Y88 whole entry F10A) above, with A10F, G96A counted along it
Method: as §2, with “The mixtures of proteins and ligands were incubated in the dark at room temperature for 30 min. The precipitated material was removed by centrifugation at 6000 rpm for 5 min.” left out
as §1

Csa3Sso WT = molecular target: T11, Csa3Sso WT (Saccharolobus solfataricus P2, UniProt Q97Y88 1-237); assay: MST; only nonspecific signal at >=250 uM; MST buffer not given in the material; Cy5 EMSA: 50 nM probe, 0.5-25 uM protein, 5% acrylamide TBE, 4 C; agarose EMSA: 2% TBE, room temperature; crystals: 20 mM; conditions: protein: recombinant; tags: N-terminal His6; chain copies: 2; cyclic; no ends
T11 sequence: T1 sequence (Q97Y88 1-237)

Which “effect of excess cOA on PCas4a binding affinity of Csa3Sso” value (His6-Csa3Sso (WT) [1]) does the source give for `Nc1ncnc2c1ncn2[C@@H]1O[C@@H]2COP(=O)(O)O[C@H]3[C@@H](O)[C@H](n4cnc5c(N)ncnc54)O[C@@H]3COP(=O)(O)O[C@H]3[C@@H](O)[C@H](n4cnc5c(N)ncnc54)O[C@@H]3COP(=O)(O)O[C@H]3[C@@H](O)[C@H](n4cnc5c(N)ncnc54)O[C@@H]3COP(=O)(O)O[C@H]3[C@@H](O)[C@H](n4cnc5c(N)ncnc54)O[C@@H]3COP(=O)(O)O[C@H]3[C@@H](O)[C@H](n4cnc5c(N)ncnc54)O[C@@H]3COP(=O)(O)O[C@H]2[C@H]1O` [cA6] here?
The value was “no significant effect; also recorded: did not significantly change”.

What about the “specific binding to His6-Csa3Sso” value (His6-Csa3Sso (WT) [2]) of the same molecule?
The value was “only cA4 exhibited a specific low micromolar binding”.

With `Nc1ncnc2c1ncn2[C@@H]1O[C@@H]2COP(=O)(O)O[C@H]3[C@@H](O)[C@H](n4cnc5c(N)ncnc54)O[C@@H]3COP(=O)(O)O[C@H]3[C@@H](O)[C@H](n4cnc5c(N)ncnc54)O[C@@H]3COP(=O)(O)O[C@H]3[C@@H](O)[C@H](n4cnc5c(N)ncnc54)O[C@@H]3COP(=O)(O)O[C@H]2[C@H]1O` [cA4, cyclic tetra-adenylate] as the molecule, how does the “cA4 hydrolysis (ring nuclease activity)” value (Csa3Sso; 5 μM Csa3Sso, 500 μM cA4, buffer G, 60 °C, Fig. 6) read?
The value was “no sign of cA4 hydrolysis products; also recorded: No changes in the time-dependent stability of cA4”.

And the “cA4 hydrolysis (ring nuclease activity)” value (Csa3Sso; 50 µM Csa3Sso, 250 µM cA4, buffer G or binding buffer, 55 °C, Fig. S5 A, B)?
Its value is “No changes”.

And the Kd [3]?
Its Kd is 15 nM.

And the “effect on levels of soluble Csa3Sso–DNA complex (shifted band)” value (Csa3Sso–PCas4a complex)?
Its value is “no effect”.

What about the cA4 binding (Csa3Sso F10A mutant) of the same molecule?
Its cA4 binding is “complete loss of cA4 binding”.

What about the “rescue of Csa3Sso-R98A from precipitating with DNA” value [4] of the same molecule?
The value was “could not rescue”.

What about the “effect on formation of Csa3Sso–PCas4a complex precipitates” value [5] of the same molecule?
The value was “prevented their formation”.

And the “cA4 hydrolysis (ring nuclease activity)” value (Csa3Sso-E122Q)?
Its value is “did not exhibit any gain of ring nuclease activity; also recorded: no ring nuclease activity was observed”.

What about the cA4 binding (Csa3Sso F14A mutant) of the same molecule?
The cA4 binding was “complete loss of cA4 binding”.

What about the cA4 binding (Csa3Sso R98A mutant) of the same molecule?
The cA4 binding was “completely lost cA4 binding”.

What about the “effect of excess cOA on PCas4a binding affinity of Csa3Sso” value (His6-Csa3Sso (WT) [1]) of the same molecule?
The value was “no significant effect; also recorded: did not significantly change”.

And the “cA4 hydrolysis (ring nuclease activity)” value (Csa3Sso-E122A)?
Its value is “did not exhibit any gain of ring nuclease activity; also recorded: no ring nuclease activity was observed”.

And the cA4 binding (Csa3Sso G96A mutant)?
Its cA4 binding is “completely lost the ability to bind cA4”.

And the “fold stronger binding of His6-Csa3Sso to cA4 than Csa3bSis to the linear cA4 analog” value (His6-Csa3Sso (WT) [2]; MST KD vs SPR KD of ref 57)?
The value was 8 fold.

With `Nc1ncnc2c1ncn2[C@@H]1O[C@@H]2COP(=O)(O)O[C@H]3[C@@H](O)[C@H](n4cnc5c(N)ncnc54)O[C@@H]3COP(=O)(O)O[C@H]3[C@@H](O)[C@H](n4cnc5c(N)ncnc54)O[C@@H]3COP(=O)(O)O[C@H]2[C@H]1O` [cA3] as the molecule, how does the “specific binding to His6-Csa3Sso” value (His6-Csa3Sso (WT) [2]) read?
Its value is “lack of Csa3Sso binding”.

Does AAA (ssRNA, cyclic tri-adenylate) [cA3] bind (Csa3Sso WT)?
Result: no binding
